Laboratory results reported in ChEMBL document CHEMBL1201862, “PubChem BioAssay data set” (2004).
Activity calls are given as the source filed them.

How the values were obtained:
[1] = target: Epstein-Barr nuclear antigen 1 (Epstein-Barr virus (strain B95-8) (HHV-4) (Human herpesvirus 4), UniProt P03211); experiment: EBNA-1 inhibitors, dose response, biochemical, fluorescence polarization, 1536-well (AID 2381); design: species or system human gammaherpesvirus 4;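 note: fluorescence polarization of a Cy5 DNA probe bound by EBNA-1 protein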
Sequence of Epstein-Barr nuclear antigen 1 (P03211 whole entry): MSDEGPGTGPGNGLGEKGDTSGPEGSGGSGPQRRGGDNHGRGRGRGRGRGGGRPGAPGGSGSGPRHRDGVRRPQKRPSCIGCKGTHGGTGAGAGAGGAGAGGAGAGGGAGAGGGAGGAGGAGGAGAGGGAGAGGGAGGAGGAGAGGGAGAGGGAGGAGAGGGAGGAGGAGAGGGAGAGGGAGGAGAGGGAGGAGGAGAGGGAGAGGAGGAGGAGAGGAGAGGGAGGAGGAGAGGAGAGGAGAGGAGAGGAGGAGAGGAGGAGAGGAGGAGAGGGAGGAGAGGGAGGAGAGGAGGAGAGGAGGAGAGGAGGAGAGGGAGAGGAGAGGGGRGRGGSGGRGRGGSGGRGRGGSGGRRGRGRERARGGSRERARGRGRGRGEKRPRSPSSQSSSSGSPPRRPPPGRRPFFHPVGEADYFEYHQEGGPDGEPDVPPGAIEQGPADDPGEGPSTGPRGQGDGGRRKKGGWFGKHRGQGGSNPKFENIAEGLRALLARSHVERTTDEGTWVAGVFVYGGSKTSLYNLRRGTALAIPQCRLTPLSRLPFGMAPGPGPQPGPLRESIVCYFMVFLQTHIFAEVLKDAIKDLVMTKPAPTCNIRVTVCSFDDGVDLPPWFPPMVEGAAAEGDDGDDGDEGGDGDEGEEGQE

[2] = target: Lytic switch protein BZLF1 (Epstein-Barr virus (strain B95-8) (HHV-4) (Human herpesvirus 4), UniProt P03206); experiment: EBV ZTA inhibitors, dose response, counter-screen for EBNA-1 inhibitor project, biochemical, fluorescence polarization, Epstein-Barr virus, 1536-well (AID 2377); design: species or system human gammaherpesvirus 4;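 note: fluorescence polarization of Cy5-labelled ZRE DNA probe bound by purified Zta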
Sequence of Lytic switch protein BZLF1 (P03206 whole entry): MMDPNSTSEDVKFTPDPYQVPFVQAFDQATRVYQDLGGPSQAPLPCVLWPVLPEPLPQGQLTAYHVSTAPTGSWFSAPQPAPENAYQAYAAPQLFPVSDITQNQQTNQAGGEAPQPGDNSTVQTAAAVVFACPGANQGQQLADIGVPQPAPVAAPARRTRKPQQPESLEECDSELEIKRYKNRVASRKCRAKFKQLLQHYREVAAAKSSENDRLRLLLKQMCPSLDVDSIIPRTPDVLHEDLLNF

[3] = target: T1, Short transient receptor potential channel 4 (Mus musculus, UniProt Q9QUQ5); experiment: mouse TRPC4 channel inhibitors, dose response, cell-based, HEK293 TRPC4/mu-opioid, Fluo-4 calcium (AID 434942); type: functional;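 note: potency of inhibitors blocking the TRPC4 calcium response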
T1 sequence (Q9QUQ5 whole entry): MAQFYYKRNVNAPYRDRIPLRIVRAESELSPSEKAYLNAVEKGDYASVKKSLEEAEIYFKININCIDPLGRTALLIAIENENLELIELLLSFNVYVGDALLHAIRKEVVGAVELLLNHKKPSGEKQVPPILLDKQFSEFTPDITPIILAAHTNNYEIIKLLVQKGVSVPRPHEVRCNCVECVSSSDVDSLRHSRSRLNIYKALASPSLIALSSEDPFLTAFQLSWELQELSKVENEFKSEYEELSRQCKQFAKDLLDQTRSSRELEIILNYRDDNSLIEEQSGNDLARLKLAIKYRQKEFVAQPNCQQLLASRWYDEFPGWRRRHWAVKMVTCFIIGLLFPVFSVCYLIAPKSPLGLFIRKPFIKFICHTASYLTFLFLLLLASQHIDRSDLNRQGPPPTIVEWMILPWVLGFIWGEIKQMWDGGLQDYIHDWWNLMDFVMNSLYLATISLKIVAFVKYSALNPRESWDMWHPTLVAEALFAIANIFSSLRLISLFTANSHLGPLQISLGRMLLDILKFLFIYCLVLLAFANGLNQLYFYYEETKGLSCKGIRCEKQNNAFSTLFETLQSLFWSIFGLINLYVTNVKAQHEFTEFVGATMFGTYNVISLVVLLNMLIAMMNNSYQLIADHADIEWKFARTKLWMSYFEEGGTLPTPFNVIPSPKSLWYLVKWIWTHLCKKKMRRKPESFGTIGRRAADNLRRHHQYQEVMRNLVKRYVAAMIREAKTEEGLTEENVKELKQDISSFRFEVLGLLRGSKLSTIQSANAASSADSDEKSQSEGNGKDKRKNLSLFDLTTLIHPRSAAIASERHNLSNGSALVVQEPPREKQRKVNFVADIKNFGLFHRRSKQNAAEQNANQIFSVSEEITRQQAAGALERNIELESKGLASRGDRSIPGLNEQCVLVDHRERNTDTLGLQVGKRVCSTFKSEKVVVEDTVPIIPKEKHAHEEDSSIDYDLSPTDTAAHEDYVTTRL

[4] = target: Peroxisome proliferator-activated receptor gamma/Nuclear receptor coactivator 2 (Homo sapiens, UniProt P37231); type: functional;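 note: agonist potency for raising coactivator recruitment to the receptor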
Sequence of Peroxisome proliferator-activated receptor gamma/Nuclear receptor coactivator 2 (P37231 whole entry): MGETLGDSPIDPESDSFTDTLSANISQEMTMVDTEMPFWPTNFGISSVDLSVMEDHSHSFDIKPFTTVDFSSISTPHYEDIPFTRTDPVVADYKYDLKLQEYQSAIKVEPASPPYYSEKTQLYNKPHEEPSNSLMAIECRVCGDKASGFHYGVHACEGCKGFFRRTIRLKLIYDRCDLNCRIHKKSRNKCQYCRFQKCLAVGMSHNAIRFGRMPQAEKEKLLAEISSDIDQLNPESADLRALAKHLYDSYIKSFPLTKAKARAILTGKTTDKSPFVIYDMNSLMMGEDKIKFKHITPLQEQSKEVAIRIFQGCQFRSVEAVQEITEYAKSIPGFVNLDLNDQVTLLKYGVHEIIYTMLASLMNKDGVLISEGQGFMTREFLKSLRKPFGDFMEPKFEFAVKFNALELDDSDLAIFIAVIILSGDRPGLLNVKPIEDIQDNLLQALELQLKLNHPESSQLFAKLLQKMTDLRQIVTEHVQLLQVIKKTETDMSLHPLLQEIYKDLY
Sequence of Peroxisome proliferator-activated receptor gamma/Nuclear receptor coactivator 2 (Q15596 whole entry, further chain): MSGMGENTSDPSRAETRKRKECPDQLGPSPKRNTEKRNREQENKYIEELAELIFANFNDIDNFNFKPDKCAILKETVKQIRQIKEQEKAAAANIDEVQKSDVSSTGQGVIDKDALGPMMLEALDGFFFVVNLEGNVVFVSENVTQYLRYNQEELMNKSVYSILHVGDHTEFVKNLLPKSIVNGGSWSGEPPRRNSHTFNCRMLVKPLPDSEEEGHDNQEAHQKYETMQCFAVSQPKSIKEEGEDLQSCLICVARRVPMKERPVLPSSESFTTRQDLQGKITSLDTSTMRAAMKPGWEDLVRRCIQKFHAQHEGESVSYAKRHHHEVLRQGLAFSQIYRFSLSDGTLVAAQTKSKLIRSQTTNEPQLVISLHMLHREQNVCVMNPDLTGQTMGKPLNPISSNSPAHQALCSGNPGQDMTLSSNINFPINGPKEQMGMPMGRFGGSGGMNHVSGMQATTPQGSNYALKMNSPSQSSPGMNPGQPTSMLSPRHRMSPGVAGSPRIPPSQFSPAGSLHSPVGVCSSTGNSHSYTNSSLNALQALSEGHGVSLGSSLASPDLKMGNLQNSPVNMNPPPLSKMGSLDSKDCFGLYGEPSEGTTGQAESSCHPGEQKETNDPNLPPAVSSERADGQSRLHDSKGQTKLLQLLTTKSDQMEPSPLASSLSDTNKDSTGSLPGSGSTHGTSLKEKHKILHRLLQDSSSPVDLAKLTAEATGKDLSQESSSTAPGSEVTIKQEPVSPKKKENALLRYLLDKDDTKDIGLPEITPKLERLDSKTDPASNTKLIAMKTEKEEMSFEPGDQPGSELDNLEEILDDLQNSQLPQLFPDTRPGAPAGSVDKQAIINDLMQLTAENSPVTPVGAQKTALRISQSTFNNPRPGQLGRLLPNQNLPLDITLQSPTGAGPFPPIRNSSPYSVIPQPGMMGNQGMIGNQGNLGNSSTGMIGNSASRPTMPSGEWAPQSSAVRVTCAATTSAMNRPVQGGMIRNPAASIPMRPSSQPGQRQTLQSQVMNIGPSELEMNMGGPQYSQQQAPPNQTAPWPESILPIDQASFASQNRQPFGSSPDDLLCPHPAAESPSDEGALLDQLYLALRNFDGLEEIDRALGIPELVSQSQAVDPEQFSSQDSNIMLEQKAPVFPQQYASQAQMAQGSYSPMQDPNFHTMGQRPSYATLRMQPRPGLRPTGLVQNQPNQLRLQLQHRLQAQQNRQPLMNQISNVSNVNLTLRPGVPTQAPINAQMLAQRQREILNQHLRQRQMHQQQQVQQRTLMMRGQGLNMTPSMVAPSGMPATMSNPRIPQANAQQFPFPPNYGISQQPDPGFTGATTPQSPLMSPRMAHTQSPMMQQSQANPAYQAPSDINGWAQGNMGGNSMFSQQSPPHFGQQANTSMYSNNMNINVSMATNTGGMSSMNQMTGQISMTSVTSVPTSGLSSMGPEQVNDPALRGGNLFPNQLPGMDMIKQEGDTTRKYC

[5] = target: Peroxisome proliferator-activated receptor gamma/Nuclear receptor coactivator 1 (Homo sapiens, UniProt P37231); type: functional;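 note: agonist potency as compounds enhance coactivator SRC-1 recruitment to PPARgamma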
[6] = target: Peroxisome proliferator-activated receptor gamma/Nuclear receptor coactivator 3 (Homo sapiens, UniProt P37231); type: functional;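 note: agonist potency for raising coactivator recruitment to the receptor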
Sequence of Peroxisome proliferator-activated receptor gamma/Nuclear receptor coactivator 3 (P37231 whole entry): as the sequence (P37231 whole entry) above
Sequence of Peroxisome proliferator-activated receptor gamma/Nuclear receptor coactivator 3 (Q9Y6Q9 whole entry, further chain): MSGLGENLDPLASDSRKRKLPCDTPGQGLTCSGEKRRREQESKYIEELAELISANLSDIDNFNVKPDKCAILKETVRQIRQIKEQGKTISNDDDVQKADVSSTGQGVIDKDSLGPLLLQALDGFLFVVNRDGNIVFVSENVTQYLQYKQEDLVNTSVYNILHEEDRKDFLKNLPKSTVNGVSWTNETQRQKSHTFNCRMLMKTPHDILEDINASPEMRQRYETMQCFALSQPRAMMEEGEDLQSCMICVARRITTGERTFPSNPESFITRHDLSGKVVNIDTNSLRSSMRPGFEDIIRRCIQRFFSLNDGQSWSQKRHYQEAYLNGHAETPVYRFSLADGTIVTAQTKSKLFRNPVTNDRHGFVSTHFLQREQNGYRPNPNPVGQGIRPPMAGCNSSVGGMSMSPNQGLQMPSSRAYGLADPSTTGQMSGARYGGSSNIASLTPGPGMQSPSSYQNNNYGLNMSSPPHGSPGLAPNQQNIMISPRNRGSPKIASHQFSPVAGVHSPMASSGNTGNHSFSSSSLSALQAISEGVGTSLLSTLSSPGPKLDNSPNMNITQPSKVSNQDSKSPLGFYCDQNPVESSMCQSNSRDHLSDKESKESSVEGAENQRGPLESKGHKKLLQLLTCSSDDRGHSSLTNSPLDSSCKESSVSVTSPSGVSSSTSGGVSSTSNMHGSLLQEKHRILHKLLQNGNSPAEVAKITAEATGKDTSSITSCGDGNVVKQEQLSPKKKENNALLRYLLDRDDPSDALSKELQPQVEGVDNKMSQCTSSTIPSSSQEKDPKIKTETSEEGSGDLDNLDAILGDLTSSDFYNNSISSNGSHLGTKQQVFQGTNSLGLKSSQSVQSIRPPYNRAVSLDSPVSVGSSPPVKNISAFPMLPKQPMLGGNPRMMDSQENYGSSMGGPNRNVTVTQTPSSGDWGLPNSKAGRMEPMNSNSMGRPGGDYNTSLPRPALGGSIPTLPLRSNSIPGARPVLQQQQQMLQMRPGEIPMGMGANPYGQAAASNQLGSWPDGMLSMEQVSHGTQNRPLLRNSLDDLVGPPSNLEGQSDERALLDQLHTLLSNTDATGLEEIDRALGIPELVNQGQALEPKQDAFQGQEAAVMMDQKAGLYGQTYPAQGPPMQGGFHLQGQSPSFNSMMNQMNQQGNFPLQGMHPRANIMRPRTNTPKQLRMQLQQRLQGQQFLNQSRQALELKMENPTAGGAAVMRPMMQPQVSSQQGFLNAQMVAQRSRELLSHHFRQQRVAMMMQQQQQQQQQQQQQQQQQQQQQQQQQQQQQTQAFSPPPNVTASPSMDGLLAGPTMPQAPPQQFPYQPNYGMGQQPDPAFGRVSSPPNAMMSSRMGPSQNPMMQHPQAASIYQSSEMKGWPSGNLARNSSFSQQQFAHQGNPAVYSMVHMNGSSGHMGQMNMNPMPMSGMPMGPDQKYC

[7] = Luminescence Cell-Based Dose Response to Identify Activators of 5'UTR Stem-Loop Driven Prion Protein mRNA Translation in H4-C Neuroglioblastoma Cells. [Related pubchem assays: 1829 (Project Summary), 1814 (Primary HTS)]; type: functional
[8] = Luminescence Cell-Based Dose Response HTS to Identify Activators of Luciferase Translation or Activity in H4 […] Cells. [Related pubchem assays: 1829 (Project Summary), 1814 (Primary HTS)]; type: functional
H4 = experiment: Luminescence Cell-Based Dose Response HTS to Identify Activators of 5'UTR Stem-Loop Driven Prion Protein mRNA Translation in H4 Neuroglioblastoma Cells. [Related pubchem assays: 1829 (Project Summary), 1814 (Primary HTS)]; type: functional; settings: Homo sapiens
[9] = Luminescence Cell-Based Dose Response to Identify Activators of Luciferase Translation or Activity in H4-C Neuroglioblastoma Cells. [Related pubchem assays: 1829 (Project Summary), 1814 (Primary HTS)]; type: functional
[10] = Luminescence Cell-Based Dose Confirmation to Identify Activators of 5'UTR Stem-Loop Driven Alpha-Synuclein mRNA Translation in H4 Neuroglioblastoma Cells. [Related pubchem assays: 1829 (Project Summary), 1814 (Primary HTS)]; type: functional
[11] = target: Aryl hydrocarbon receptor (Homo sapiens, UniProt P35869); experiment: Luminescence-based cell-based high throughput dose response assay for activators of the Aryl Hydrocarbon Receptor (AHR). [Related pubchem assays: 2796 (Primary screen (AHR activators in singlicate)), 2845 (Confirmation screen (AHR activators in triplicate)), 434939 (Counterscreen (PXR activators in triplicate)), 2804 (Summary (AHR activators))]; type: ADME
[12] = target: T2, Neuropeptide Y receptor type 1 (Homo sapiens, UniProt P25929); type: functional;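 note: HEK293 cells with a CNG channel challenged with NPY then isoproterenol; potency as antagonist that reverses NPY suppression of cAMP signal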
T2 sequence (P25929 whole entry): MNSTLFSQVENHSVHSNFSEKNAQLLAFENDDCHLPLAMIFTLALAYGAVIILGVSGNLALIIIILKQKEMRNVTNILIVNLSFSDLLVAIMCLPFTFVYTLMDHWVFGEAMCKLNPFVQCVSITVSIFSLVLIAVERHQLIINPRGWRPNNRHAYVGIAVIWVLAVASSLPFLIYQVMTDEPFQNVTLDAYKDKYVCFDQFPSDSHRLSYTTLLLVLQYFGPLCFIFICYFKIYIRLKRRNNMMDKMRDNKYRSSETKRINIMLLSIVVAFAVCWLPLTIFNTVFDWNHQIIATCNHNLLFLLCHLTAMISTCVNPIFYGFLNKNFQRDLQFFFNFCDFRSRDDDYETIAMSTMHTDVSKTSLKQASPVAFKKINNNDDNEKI

[13] = target: T3, Neuropeptide Y receptor type 2 (Homo sapiens, UniProt P49146); type: functional, cell-based;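 note: HEK293 cells expressing the receptor and a CNG channel; stimulus was NPY near EC95 followed by isoproterenol to raise cAMP; antagonist potency measured as restoring cAMP signal that NPY suppresses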
T3 sequence (P49146 whole entry): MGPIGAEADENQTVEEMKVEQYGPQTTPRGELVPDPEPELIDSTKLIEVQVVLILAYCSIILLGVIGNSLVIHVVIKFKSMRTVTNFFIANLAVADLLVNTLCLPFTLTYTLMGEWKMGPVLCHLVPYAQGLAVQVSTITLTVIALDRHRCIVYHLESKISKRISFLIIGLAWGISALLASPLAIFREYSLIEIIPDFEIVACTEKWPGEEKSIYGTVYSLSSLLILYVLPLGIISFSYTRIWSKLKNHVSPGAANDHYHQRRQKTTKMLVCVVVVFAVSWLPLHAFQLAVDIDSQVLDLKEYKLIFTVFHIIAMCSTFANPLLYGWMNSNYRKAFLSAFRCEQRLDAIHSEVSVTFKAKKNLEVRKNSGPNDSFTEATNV

Cytochrome P450 2C19 = Cytochrome P450 2C19 (Homo sapiens, UniProt P33261); experiment: qHTS Assay for Inhibitors and Substrates of Cytochrome P450 2C19. [Related pubchem assays: 410 ]; type: ADME; settings: read-out: Potency
Cytochrome P450 2D6 = Cytochrome P450 2D6 (Homo sapiens, UniProt P10635); experiment: qHTS Assay for Inhibitors and Substrates of Cytochrome P450 2D6. [Related pubchem assays: 410 ]; type: ADME; settings: read-out: Potency
Cytochrome P450 3A4 = Cytochrome P450 3A4 (Homo sapiens, UniProt P08684); settings: Potency;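 note: confirmatory qHTS run detecting inhibitors and substrates of CYP3A4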
Trypsin = Trypsin (Sus scrofa, UniProt P00761); experiment: porcine trypsin inhibitors, dose response, selectivity assay for Rce1 protease inhibitor project, biochemical, quenched peptide fluorescence, cherry-pick (AID 488789)
Sequence of Trypsin (P00761 whole entry): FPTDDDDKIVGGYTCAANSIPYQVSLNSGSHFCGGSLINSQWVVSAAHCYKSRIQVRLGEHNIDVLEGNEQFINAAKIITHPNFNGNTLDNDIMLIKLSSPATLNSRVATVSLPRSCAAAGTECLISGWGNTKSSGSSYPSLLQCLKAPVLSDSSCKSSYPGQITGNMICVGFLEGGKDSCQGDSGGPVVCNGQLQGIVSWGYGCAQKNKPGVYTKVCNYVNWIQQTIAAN

CAAX prenyl protease 2 [14] = target: T4, CAAX prenyl protease 2 (Saccharomyces cerevisiae S288c, UniProt Q03530); type: biochemical
T4 sequence (Q03530 whole entry): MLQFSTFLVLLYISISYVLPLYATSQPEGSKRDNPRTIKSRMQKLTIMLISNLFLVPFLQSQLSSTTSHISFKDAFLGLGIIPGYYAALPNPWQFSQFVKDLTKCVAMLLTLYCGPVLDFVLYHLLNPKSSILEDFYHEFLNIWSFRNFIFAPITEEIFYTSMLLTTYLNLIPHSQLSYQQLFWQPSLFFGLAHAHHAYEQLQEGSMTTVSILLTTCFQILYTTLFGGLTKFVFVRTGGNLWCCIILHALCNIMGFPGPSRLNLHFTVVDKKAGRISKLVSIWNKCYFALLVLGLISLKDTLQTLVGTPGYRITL

CAAX prenyl protease 2 [15] = target: T5, CAAX prenyl protease 2 (Homo sapiens, UniProt Q9Y256); experiment: human Rce1 protease inhibitors, dose response, biochemical, yeast membranes, quenched-peptide fluorescence, cherry-pick (AID 588849)
T5 sequence (Q9Y256 whole entry): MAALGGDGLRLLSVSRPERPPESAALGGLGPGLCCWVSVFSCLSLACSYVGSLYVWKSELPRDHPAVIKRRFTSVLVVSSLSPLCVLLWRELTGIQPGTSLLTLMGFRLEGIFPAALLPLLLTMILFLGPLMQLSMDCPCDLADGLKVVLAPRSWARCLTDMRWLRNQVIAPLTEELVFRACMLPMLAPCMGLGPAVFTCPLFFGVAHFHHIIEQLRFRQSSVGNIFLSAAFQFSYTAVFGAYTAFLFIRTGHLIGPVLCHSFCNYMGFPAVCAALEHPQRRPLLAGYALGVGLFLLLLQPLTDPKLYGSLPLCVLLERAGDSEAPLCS

[16] = target: T6, DNA repair and recombination protein RAD54-like (Homo sapiens, UniProt Q92698); experiment: inhibitors of human RAD54 branch migration, confirmation, biochemical, fluorescence, cherry-picked samples, dose series (AID 651657); type: functional
T6 sequence (Q92698 whole entry): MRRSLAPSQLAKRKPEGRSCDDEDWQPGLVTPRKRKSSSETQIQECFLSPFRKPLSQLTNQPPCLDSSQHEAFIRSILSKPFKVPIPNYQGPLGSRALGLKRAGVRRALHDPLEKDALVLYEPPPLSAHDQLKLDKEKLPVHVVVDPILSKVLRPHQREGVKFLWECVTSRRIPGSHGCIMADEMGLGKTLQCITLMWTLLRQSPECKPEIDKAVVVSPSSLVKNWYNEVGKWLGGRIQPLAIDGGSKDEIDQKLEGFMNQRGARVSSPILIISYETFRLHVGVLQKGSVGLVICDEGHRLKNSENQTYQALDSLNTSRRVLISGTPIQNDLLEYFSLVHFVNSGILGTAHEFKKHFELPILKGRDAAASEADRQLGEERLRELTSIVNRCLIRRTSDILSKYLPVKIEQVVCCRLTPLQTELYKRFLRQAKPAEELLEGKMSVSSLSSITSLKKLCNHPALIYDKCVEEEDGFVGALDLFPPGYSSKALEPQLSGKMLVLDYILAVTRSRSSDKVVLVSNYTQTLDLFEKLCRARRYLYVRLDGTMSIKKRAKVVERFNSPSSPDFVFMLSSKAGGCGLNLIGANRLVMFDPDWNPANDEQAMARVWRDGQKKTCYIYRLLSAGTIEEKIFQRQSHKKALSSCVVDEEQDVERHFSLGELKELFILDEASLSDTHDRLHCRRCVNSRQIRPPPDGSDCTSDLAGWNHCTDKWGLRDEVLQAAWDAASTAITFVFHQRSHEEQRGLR

[17] = target: T7, DNA repair protein RAD52 homolog (Homo sapiens, UniProt P43351); type: functional, biochemical
T7 sequence (P43351 whole entry): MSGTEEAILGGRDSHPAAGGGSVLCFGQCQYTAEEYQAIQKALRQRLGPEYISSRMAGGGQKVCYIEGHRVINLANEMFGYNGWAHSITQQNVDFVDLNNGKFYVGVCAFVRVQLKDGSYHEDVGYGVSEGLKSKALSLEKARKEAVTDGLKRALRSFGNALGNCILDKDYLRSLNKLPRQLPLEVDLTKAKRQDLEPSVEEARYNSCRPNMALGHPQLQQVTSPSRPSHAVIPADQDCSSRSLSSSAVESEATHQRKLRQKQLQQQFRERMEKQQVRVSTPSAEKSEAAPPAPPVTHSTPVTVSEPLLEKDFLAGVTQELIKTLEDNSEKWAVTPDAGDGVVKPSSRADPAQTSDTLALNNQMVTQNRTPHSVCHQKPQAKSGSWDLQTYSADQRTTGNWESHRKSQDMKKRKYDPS

HeLa = experiment: HeLa cell cytotoxicity, dose response, cytotoxicity control for MITF activator project, CellTiter-Glo luminescence, cherry-pick samples (AID 540259); type: functional, cell-based; settings: Homo sapiens

## O=C(CCCCCn1c(=S)[nH]c2cc3c(cc2c1=O)OCO3)N1CCN(Cc2ccccc2)CC1
[1]
  IC50: 14.9 µM (not active)
[2]
  IC50: > 111 µM (not active)

## COc1cccc(N2CC(=O)C(c3nc(O)c4ccccc4n3)=C2N)c1
[1]
  IC50: 10.2 µM (not active)
[2]
  IC50: > 111 µM (not active)
[3]
  EC50: 0.133 µM (active)

## CCOC(=O)c1cnc2c(C)c(Cl)ccc2c1N1CCOCC1
[4]
  EC50: > 79.4 µM (not active)
[5]
  EC50: > 79.4 µM (not active)
[6]
  EC50: > 79.4 µM (not active)

## Cc1nc2cc(Nc3nnc(-c4ccccc4)c4ccccc34)ccc2n1C
[7]
  EC50: > 12 µM (not active)
[8]
  EC50: < 0.1 µM (active)
H4
  EC50: 31.4 µM (active)
[9]
  EC50: > 12 µM (not active)
[10]
  EC50: 2.91 µM (active)

## CCCc1nn(C)c(C(=O)Nc2cccc3ccccc23)c1Cl
[11]
  EC50: 5.22 µM (active)

## CC1=NN(C(=O)Cn2ccc([N+](=O)[O-])n2)C(O)(C(F)(F)F)C1 (centres undefined)
[4]
  EC50: > 79.4 µM (not active)
[5]
  EC50: > 79.4 µM (not active)
[6]
  EC50: > 79.4 µM (not active)

## COc1cccc(-c2ccc(C#N)c(SCC(=O)NCCc3ccc(Cl)cc3)n2)c1
[12]
  IC50: 4.58 µM (active)
[13]
  IC50: 6.45 µM (active)

## COC(=O)N1CCc2cc(OC)c(OC)cc2C1Cc1ccc(OC)cc1 (centres undefined)
Cytochrome P450 2C19
  AC50: 3.98 µM (inconclusive)
Cytochrome P450 2D6
  AC50: 3.16 µM (inconclusive)
Cytochrome P450 3A4
  AC50: 3.98 µM (inconclusive)

## CN(C)CCCN1C(=O)c2cccc3cccc(c23)C1=O
[11]
  EC50: 0.815 µM (active)
Trypsin
  AC50: 38 µM (active)
CAAX prenyl protease 2 [14]
  AC50: 68.1 µM (active)
CAAX prenyl protease 2 [15]
  AC50: 5.4 µM (active)
[16]
  AC50: 11.1 µM (active)
[17]
  AC50: 16.4 µM (active)

## FC(F)Oc1ccc(/N=C2\SCC3CCCCN23)cc1 (centres undefined)
[7]
  EC50: 1.04 µM (active)
[8]
  EC50: < 0.1 µM (active)
H4
  EC50: 30.2 µM (inconclusive)
[9]
  EC50: 0.34 µM (active)
[10]
  EC50: 0.405 µM (active)
HeLa
  AC50: 342 µM (active)
